Laboratory results published in patent publication US9139523B2, “5-HT2B receptor antagonists” (Janssen Pharmaceutica, NV, priority 2010, dated 2015).
Where two headings read alike, the source gives them in different places.

Legend:
[1] = Cardiovascular effects in the anaesthetized guinea-pig; format: in vivo; conditions: female, plasma, iv, guinea pig, end of 5-min i.v. infusion; for concentration at 5 min: read-out: Median plasma level; for Cmax: read-out: Median plasma level (Cmax)
Method: (§1) Female guinea-pigs were anesthetized with sodium pentobarbital (66 mg/kg i.p.) followed by a continuous i.v. infusion of 6 mg/h of sodium pentobarbital and prepared for measurements of the surface electrocardiogram (ECG), heart rate and mean arterial blood pressure (see De Clerck et al, Fundam. Clin. Pharm.; 2002; 16: 125-140). Compound (−)-17 was dissolved in 20% hydroxypropyl-cyclodextrin with NaOH, HCl and mannitol in pyrogen-free water and administered intravenously (0.5 ml/kg) in increasing doses (0.16, 0.32, 0.64, 1.25, 2.5 and 5 mg/kg) over a period of 5 min at 15-min intervals. Plasma concentrations of Compound (−)-17 were measured at the end of each infusion. Corresponding volumes of vehicle were administered according to the same protocol in a second group of animals.

anesthetized guinea-pig = test: as above; format: in vivo
Method: as §1

[2] = guinea pig i.v. 0.16 mg/kg @ 2′
[3] = guinea pig i.v. 0.16 mg/kg @ 5′
[4] = guinea pig i.v. 0.16 mg/kg @ 15′
[5] = guinea pig i.v. 0.32 mg/kg @ 2′
[6] = guinea pig i.v. 0.32 mg/kg @ 5′
[7] = guinea pig i.v. 0.32 mg/kg @ 15′
[8] = guinea pig i.v. 0.64 mg/kg @ 2′
[9] = guinea pig i.v. 0.64 mg/kg @ 5′
[10] = guinea pig i.v. 0.64 mg/kg @ 15′
[11] = guinea pig i.v. 1.25 mg/kg @ 2′
[12] = guinea pig i.v. 1.25 mg/kg @ 5′
[13] = guinea pig i.v. 1.25 mg/kg @ 15′
[14] = guinea pig i.v. 2.5 mg/kg @ 15′

## COc1cc(N)c(Cl)cc1C(=O)NC1CCN(CCCOc2ccc(F)cc2)CC1(F)F (single isomer, unassigned) [Compound (−)-17, 4-amino-5-chloro-N-{3,3-difluoro-1-[3-(4-fluorophenoxy)-propyl]-piperidin-4-yl}-2-methoxybenzamide]
[1]; dose 0.16 mg/kg (increasing doses, 15-min intervals)
  concentration at 5 min: 398 ng/mL
[1]; dose 0.32 mg/kg (increasing doses, 15-min intervals)
  concentration at 5 min: 873 ng/mL
[1]; dose 0.64 mg/kg (increasing doses, 15-min intervals)
  concentration at 5 min: 1820 ng/mL
[1]; dose 1.25 mg/kg (increasing doses, 15-min intervals)
  concentration at 5 min: 3330 ng/mL
[1]; dose 2.5 mg/kg (increasing doses, 15-min intervals)
  Cmax: 6320 ng/mL
[1]; dose 5 mg/kg (increasing doses, 15-min intervals; total dose 9.87 mg/kg)
  Cmax: 12000 ng/mL
Anesthetized guinea-pig; [2]
  HR, percentage change relative to baseline: −1%
  MBP, percentage change relative to baseline: 4%
  PQ, percentage change relative to baseline: 0%
  QRS, percentage change relative to baseline: −2%
  QT, percentage change relative to baseline: 0%
  QTc B, percentage change relative to baseline: −1%
Anesthetized guinea-pig; [3]
  HR, percentage change relative to baseline: 0%
  PQ, percentage change relative to baseline: 1%
  QRS, percentage change relative to baseline: −2%
  QT, percentage change relative to baseline: −1%
  QTc B, percentage change relative to baseline: −1%
Anesthetized guinea-pig; [4]
  HR, percentage change relative to baseline: −2%
  MBP, percentage change relative to baseline: −3%
  PQ, percentage change relative to baseline: 4%
  QRS, percentage change relative to baseline: 0%
  QT, percentage change relative to baseline: 1%
  QTc B, percentage change relative to baseline: 1%
Anesthetized guinea-pig; [5]
  HR, percentage change relative to baseline: −1%
  MBP, percentage change relative to baseline: 6%
  PQ, percentage change relative to baseline: 2%
  QRS, percentage change relative to baseline: −2%
  QT, percentage change relative to baseline: 0%
  QTc B, percentage change relative to baseline: 1%
Anesthetized guinea-pig; [6]
  HR, percentage change relative to baseline: −4%
  MBP, percentage change relative to baseline: 2%
  PQ, percentage change relative to baseline: 4%
  QRS, percentage change relative to baseline: 0%
  QT, percentage change relative to baseline: 3%
  QTc B, percentage change relative to baseline: 1%
Anesthetized guinea-pig; [7]
  HR, percentage change relative to baseline: −4%
  MBP, percentage change relative to baseline: −3%
  PQ, percentage change relative to baseline: 4%
  QRS, percentage change relative to baseline: 0%
  QT, percentage change relative to baseline: 4%
  QTc B, percentage change relative to baseline: 3%
Anesthetized guinea-pig; [8]
  HR, percentage change relative to baseline: −5%
  MBP, percentage change relative to baseline: 6%
  PQ, percentage change relative to baseline: 5%
  QRS, percentage change relative to baseline: 0%
  QT, percentage change relative to baseline: 7%
  QTc B, percentage change relative to baseline: 4%
Anesthetized guinea-pig; [9]
  HR, percentage change relative to baseline: −2%
  MBP, percentage change relative to baseline: 13%
  PQ, percentage change relative to baseline: 5%
  QRS, percentage change relative to baseline: −5%
  QT, percentage change relative to baseline: 5%
  QTc B, percentage change relative to baseline: 2%
Anesthetized guinea-pig; [10]
  HR, percentage change relative to baseline: −5%
  MBP, percentage change relative to baseline: −5%
  PQ, percentage change relative to baseline: 4%
  QRS, percentage change relative to baseline: −3%
  QT, percentage change relative to baseline: 8%
  QTc B, percentage change relative to baseline: 4%
Anesthetized guinea-pig; [11]
  HR, percentage change relative to baseline: −7%
  MBP, percentage change relative to baseline: 4%
  PQ, percentage change relative to baseline: 5%
  QRS, percentage change relative to baseline: −2%
  QT, percentage change relative to baseline: 8%
  QTc B, percentage change relative to baseline: 4%
Anesthetized guinea-pig; [12]
  HR, percentage change relative to baseline: −7%
  MBP, percentage change relative to baseline: 15%
  PQ, percentage change relative to baseline: 6%
  QRS, percentage change relative to baseline: 0%
  QT, percentage change relative to baseline: 6%
  QTc B, percentage change relative to baseline: 2%
Anesthetized guinea-pig; [13]
  HR, percentage change relative to baseline: 0%
  MBP, percentage change relative to baseline: 9%
  PQ, percentage change relative to baseline: 6%
  QRS, percentage change relative to baseline: −3%
  QT, percentage change relative to baseline: 2%
  QTc B, percentage change relative to baseline: 3%
Anesthetized guinea-pig; guinea pig i.v. 2.5 mg/kg @ 2′
  HR, percentage change relative to baseline: −5%
  PQ, percentage change relative to baseline: 7%
  QRS, percentage change relative to baseline: −3%
  QT, percentage change relative to baseline: 6%
  QTc B, percentage change relative to baseline: 4%
Anesthetized guinea-pig; guinea pig i.v. 2.5 mg/kg @ 5′
  HR, percentage change relative to baseline: −6%
  MBP, percentage change relative to baseline: 21%
  PQ, percentage change relative to baseline: 7%
  QRS, percentage change relative to baseline: −3%
  QT, percentage change relative to baseline: 6%
  QTc B, percentage change relative to baseline: 3%
Anesthetized guinea-pig; [14]
  HR, percentage change relative to baseline: −4%
  MBP, percentage change relative to baseline: 8%
  PQ, percentage change relative to baseline: 8%
  QRS, percentage change relative to baseline: 0%
  QT, percentage change relative to baseline: 6%
  QTc B, percentage change relative to baseline: 5%
Anesthetized guinea-pig; guinea pig i.v. 5 mg/kg @ 2′
  HR, percentage change relative to baseline: −3%
  PQ, percentage change relative to baseline: 6%
  QRS, percentage change relative to baseline: −2%
  QT, percentage change relative to baseline: 7%
  QTc B, percentage change relative to baseline: 5%
Anesthetized guinea-pig; guinea pig i.v. 5 mg/kg @ 5′
  HR, percentage change relative to baseline: −3%
  PQ, percentage change relative to baseline: 6%
  QRS, percentage change relative to baseline: 0%
  QT, percentage change relative to baseline: 3%
  QTc B, percentage change relative to baseline: 2%
Anesthetized guinea-pig; guinea pig, 0.16 up to 5 mg/kg i.v., relative to vehicle
  effect on heart rate, duration of PQ, QRS, QT and QTcB intervals, ECG morphology: no relevant effect
Anesthetized guinea-pig; guinea pig, from 2.5 mg/kg i.v. onwards
  mean arterial blood pressure: started to increase
